From patent US10681909B2, “Herbicidal triazoles” (FMC Corporation, priority 2014, dated 2020)

Experiments:
ryegrass, Italian [1] = experiment: Test A preemergence; type: in vivo, Lolium multiflorum; details: 0 to 100 scale (0 no effect, 100 complete control)
Summary of the method: (§1)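 Visual 0–100 ratings (0 no effect, 100 complete control) made roughly 10 days after treatment, comparing greenhouse-grown plants to untreated controls. Formulated test chemicals, with surfactant, went either as directed soil spray at planting or onto 2–10 cm seedlings bearing one to two leaves.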

barley, spring = experiment: Test D preemergence; type: in vivo, Hordeum vulgare; details: for Plant response rating: Barley, Spring: scale 0 to 100
Text: (§2) Seeds of plant species selected from bluegrass (annual bluegrass, Poa annua), blackgrass (Alopecurus myosuroides), canarygrass (Phalaris minor), chickweed (common chickweed, Stellaria media), galium (catchweed bedstraw, Galium aparine), bromegrass, down (downy bromegrass, Bromus tectorum), Russian thistle (Salsola kali), field poppy (Papaver rhoeas), field violet (Viola arvensis), foxtail, green (green foxtail, Setaria viridis), deadnettle (henbit deadnettle, Lamium amplexicaule), ryegrass, Ital. (Italian ryegrass, Lolium multiflorum), kochia (Kochia scoparia), lambsquarters (Chenopodium album), oilseed rape (Brassica napus), pigweed (Amaranthus retroflexus), chamomile (scentless chamomile, Matricaria inodora), speedwell (bird's-eye speedwell, Veronica persica), barley, spring (spring barley, Hordeum vulgare), wheat, spring (spring wheat, Triticum aestivum), buckwheat, wild (wild buckwheat, Polygonum convolvulus), wild mustard (Sinapis arvensis), oat, wild (wild oat, Avena fatua), radish, wild (wild radish, Raphanus raphanistrum), […]), barley, winter (winter barley, Hordeum vulgare), and wheat, winter (winter wheat, Triticum aestivum) were planted into a silt loam soil and treated preemergence with test chemicals formulated in a non-phytotoxic solvent mixture which included a surfactant. At the same time, these species were planted in pots containing Sunshine Redi-Earth® planting medium comprising spaghnum peat moss, vermiculite, starter nutrients and dolomitic limestone and treated with postemergence applications of the test chemicals formulated in the same manner. Plants ranged in height from 2 to 18 cm (1- to 4-leaf stage). Treated plants and controls were maintained in a controlled growth environment for 14 to 21 d after which time all species were compared to controls and visually evaluated. […] A dash (-) response means no test result.

barley, winter = experiment: Test D preemergence; type: in vivo, Hordeum vulgare; details: for Plant response rating: Barley, Winter: scale 0 to 100
Text: as §2

galium = experiment: Test D postemergence; type: in vivo, Galium aparine; details: scale 0 to 100
Text: as §2

field poppy = experiment: Test D postemergence; type: in vivo, Papaver rhoeas; details: scale 0 to 100
Text: as §2

wild mustard = experiment: Test D preemergence; type: in vivo, Sinapis arvensis; details: for Plant response rating: Mustard, Wild: scale 0 to 100
Text: as §2

windgrass = experiment: Test D preemergence; type: in vivo, Apera spica-venti; details: for Plant response rating: Windgrass: scale 0 to 100
Text: as §2

pigweed [2] = experiment: Test D preemergence; type: in vivo, Amaranthus retroflexus; details: for Plant response rating: Pigweed: scale 0 to 100
Text: as §2

ryegrass, Italian [3] = experiment: Test A postemergence; type: in vivo, Lolium multiflorum; details: 0 to 100 scale (0 no effect, 100 complete control), approx. 10 d
Summary of the method: as §1

ragweed = experiment: Test A preemergence; type: in vivo, Ambrosia elatior; details: 0 to 100 scale (0 no effect, 100 complete control)
Summary of the method: as §1

oilseed rape = experiment: Test D preemergence; type: in vivo, Brassica napus; details: for Plant response rating: Oilseed Rape: scale 0 to 100
Text: as §2

pigweed [4] = experiment: Test D postemergence; type: in vivo, Amaranthus retroflexus; details: scale 0 to 100
Text: as §2

[5] = 16 g ai/ha, 0 is no effect, 100 is complete control

For `COc1nc(-c2ccc(Cl)cc2)nn1Cc1ccnc(C(F)(F)F)c1` [Compound 28], the “Plant response rating, Ryegrass, Italian” value (ryegrass, Italian [1]; 125 g ai/ha) was 20, the “Plant response rating, Ryegrass, Italian” value (ryegrass, Italian [1]; 500 g ai/ha, approx. 10 d) was 90 and the “Plant response rating (0 to 100), Barley, Spring” value (barley, spring; [5]) was 15. For the same compound, the “Plant response rating: Barley, Spring” value (barley, spring; 31 g ai/ha) was 20, the “Plant response rating: Barley, Spring” value (barley, spring; 62 g ai/ha) was 20 and the “Plant response rating: Barley, Spring” value (barley, spring; 125 g ai/ha) was 25. The “Plant response rating (0 to 100), Barley, Winter” value (barley, winter; [5]) was 10, the “Plant response rating: Barley, Winter” value (barley, winter; 31 g ai/ha) was 15 and the “Plant response rating: Barley, Winter” value (barley, winter; 62 g ai/ha) was 20. For the same compound, the “Plant response rating: Barley, Winter” value (barley, winter; 125 g ai/ha) was 25, the “Plant response rating: Galium” value (galium; 16 g ai/ha) was 65 and the “Plant response rating: Galium” value (galium; 31 g ai/ha) was 70. For the same compound, the “Plant response rating: Galium” value (galium; 62 g ai/ha) was 75, the “Plant response rating: Galium” value (galium; 125 g ai/ha) was 80 and the “Plant response rating: Field Poppy” value (field poppy; 16 g ai/ha) was 65. The “Plant response rating: Field Poppy” value (field poppy; 31 g ai/ha) was 65, the “Plant response rating: Field Poppy” value (field poppy; 62 g ai/ha) was 65 and the “Plant response rating: Field Poppy” value (field poppy; 125 g ai/ha) was 70. For the same compound, the “Plant response rating (0 to 100), Mustard, Wild” value (wild mustard; [5]) was 90, the “Plant response rating: Mustard, Wild” value (wild mustard; 62 g ai/ha) was 100 and the “Plant response rating: Mustard, Wild” value (wild mustard; 125 g ai/ha) was 100. The “Plant response rating (0 to 100), Windgrass” value (windgrass; [5]) was 25, the “Plant response rating: Windgrass” value (windgrass; 62 g ai/ha) was 50 and the “Plant response rating: Windgrass” value (windgrass; 125 g ai/ha) was 80. The “Plant response rating (0 to 100), Pigweed” value (pigweed [2]; [5]) was 100, the “Plant response rating: Pigweed” value (pigweed [2]; 62 g ai/ha) was 100 and the “Plant response rating: Pigweed” value (pigweed [2]; 125 g ai/ha) was 100. The “Plant response rating, Ryegrass, Italian” value (ryegrass, Italian [3]; 125 g ai/ha) was 20, the “Plant response rating, Ryegrass, Italian” value (ryegrass, Italian [3]; 500 g ai/ha) was 50 and the “Plant response rating, Ragweed” value (ragweed; 125 g ai/ha) was 10. The “Plant response rating, Ragweed” value (ragweed; 500 g ai/ha, approx. 10 d) was 40, the “Plant response rating (0 to 100), Oilseed Rape” value (oilseed rape; [5]) was 10 and the “Plant response rating: Oilseed Rape” value (oilseed rape; 62 g ai/ha) was 15. For the same compound, the “Plant response rating: Oilseed Rape” value (oilseed rape; 125 g ai/ha) was 15, the “Plant response rating: Pigweed” value (pigweed [4]; 16 g ai/ha) was 100 and the “Plant response rating: Pigweed” value (pigweed [4]; 31 g ai/ha) was 100. For the same compound, the “Plant response rating: Pigweed” value (pigweed [4]; 62 g ai/ha) was 100 and the “Plant response rating: Pigweed” value (pigweed [4]; 125 g ai/ha) was 100.
